Experimental data from patent US11028041B2, “Second generation GRP94-selective inhibitors” (University of Kansas, priority 2017, dated 2021).

Experiments:
Hsp90α = Hsp90α (Homo sapiens (Human), UniProt P07900); experiment: Fluorescence polarization assay against Hsp90α; format: binding; conditions: FITC-GDA tracer, 100 μM highest concentration tested, average of two independent experiments ± SEM, read-out: Apparent Kd Hsp90α
Procedure: Fluorescence Polarization. The assay was performed in 96-well black, flat-bottom plates with a final volume of 100 μL. 25 μL of assay buffer (20 mM HEPES, pH 7.3, 50 mM KCl, 5 mM MgCl2, 20 mM Na2MoO4, 2 mM DTT, 0.1 mg/mL BGG, and 0.01% NP-40) were added, followed by 25 μL of assay buffer containing 6 nM FITC-GDA (fluorescent tracer, stock in DMSO, diluted in assay buffer) and 50 μL of assay buffer containing 10 nM of either Grp94 or Hsp90α were added to each well. For each plate, wells containing buffer only (background), tracer in buffer only (low polarization control) and protein, tracer, and 1% DMSO (final concentration, high polarization control) were included. Compounds were then added with a final concentration of DMSO=1%. Plates were incubated at 4° C. with rocking for 24 h. […] Polarization values were correlated to % tracer bound and compound concentrations.

Hsp70 = experiment: Western blot analysis, Hsp70 induction; format: cell-based; conditions: MDA-MB-231, PC3-MM2, SK-MEL-28, A549; 24 h; geldanamycin at 0.5 μM
Procedure: (§4) Western Blot Analysis. […] Cells were harvested in cold PBS and lysed using MPER (Thermo Scientific) supplemented with protease inhibitors (Roche) according the manufacturer's instructions. Cell lysates were obtained by centrifugation at 15,000 rpm for 10 min at 4° C. Protein concentrations were determined using the Pierce BCA assay kit following the manufacturer's instructions. Equal amounts of protein were separated via gel electrophoresis under reducing conditions (10% acrylamide gels) then transferred to PVDF membranes and immunoblotted with the corresponding primary antibodies. Membranes were then incubated with the correct HRP-labeled secondary antibody, developed with a chemiluminescent substrate, and visualized.

PC3-MM2 cells [1] = conditions: 500 nM, after 24 h
Procedure: (§1) Wound Healing Scratch Assay. Cells were counted via Trypan blue exclusion and seeded in 12-well plates at 200,000 cells/mL/well and returned to the incubator for 24 h. Scratches were made with a 0.1-10 μL pipette tip, then cells were washed with PBS and fresh media was added. […] Plates were returned to the incubator until 24 h pictures were taken. Images were processed and % migration determined via ImageJ. All experiments were performed in quadruplicate.

MDA-MB-231 cells [2] = conditions: 500 nM, after 24 h
Procedure: as §1

MDA-MB-231 cells [3] = experiment: Anti-proliferation MTS/PMS assay, MDA-MB-231; format: cell-based; conditions: Homo sapiens, 72 h, average of two independent experiments ± SEM
Procedure: (§2) Compounds or vehicle were administered in DMSO (1% DMSO final concentration) and the plates were placed back in the incubator. After 72 h, the % viable cells were determined using the MTS/PMS cell proliferation kit (Promega) per the manufacturer's instructions. Cells treated with vehicle were normalized to 100% viable and compound treated wells were adjusted accordingly.

A549 cells [4] = experiment: Anti-proliferation MTS/PMS assay, A549; format: cell-based; conditions: Homo sapiens, 72 h, average of two independent experiments ± SEM
Procedure: as §2

A549 cells [5] = experiment: Wound healing scratch assay, A549; format: cell-based; conditions: 500 nM, 24 h
Procedure: (§3) Cell Culture. […] Wound Healing Scratch Assay. […] Images were processed and % migration determined via ImageJ. All experiments were performed in quadruplicate.

SK-MEL-28 cells [6] = experiment: Anti-proliferation MTS/PMS assay, SK-MEL-28; format: cell-based; conditions: Homo sapiens, 72 h, average of two independent experiments ± SEM
Procedure: as §2

Akt = experiment: Western blot analysis, cytosolic Hsp90-dependent client protein Akt; format: cell-based; conditions: MDA-MB-231, PC3-MM2, SK-MEL-28, A549; 24 h; geldanamycin at 0.5 μM
Procedure: as §4

SK-MEL-28 cells [7] = experiment: Wound healing scratch assay, SK-MEL-28; format: cell-based; conditions: after 24 h
Procedure: as §3

PC3-MM2 cells [8] = experiment: Anti-proliferation MTS/PMS assay, PC3-MM2; format: cell-based; conditions: Homo sapiens, PC3MM2, 72 h, average of two independent experiments ± SEM
Procedure: as §2

Compound	Kd (Hsp90α)	also measured
COC(=O)c1c(O)cc(O)c(Cl)c1CCc1cccc(Cc2ccccc2)c1 [Compound 7, methyl 2-(3-benzylphenethyl)-3-chloro-4,6-dihydroxybenzoate]	> 100 µM	–
COC(=O)c1c(O)cc(O)c(Cl)c1CCc1ccc(OC)cc1Cc1ccccc1 [Compound 17, methyl 2-(2-benzyl-4-methoxyphenethyl)-3-chloro-4,6-dihydroxybenzoate]	2.6 ± 0.6 µM	–
COC(=O)c1c(O)cc(O)c(Cl)c1CCc1ccc(O)cc1Cc1ccccc1 [Compound 23, methyl 2-(2-benzyl-4-hydroxyphenethyl)-3-chloro-4,6-dihydroxybenzoate]	0.92 ± 0.03 µM	–
COC(=O)c1c(O)cc(O)c(Cl)c1CCc1ccccc1Cc1cccc(Cl)c1 [Compound 28, methyl 3-chloro-2-(2-(3-chlorobenzyl)phenethyl)-4,6-dihydroxybenzoate]	44.6 ± 2 µM	–
COC(=O)c1c(O)cc(O)c(Cl)c1CCc1ccccc1Cc1ccc(Cl)cc1 [Compound 29, methyl 3-chloro-2-(2-(4-chlorobenzyl)phenethyl)-4,6-dihydroxybenzoate]	> 100 µM	–
COC(=O)c1c(O)cc(O)c(Cl)c1CCc1ccccc1Cc1ccc(F)cc1 [Compound 30, methyl 3-chloro-2-(2-(4-fluorobenzyl)phenethyl)-4,6-dihydroxybenzoate]	–	induction of Hsp70 (Hsp70): nor did it result in the induction of Hsp70; % migration (PC3-MM2 cells [1]): 38-40%; % migration (MDA-MB-231 cells [2]): 38-40%; GI50 (MDA-MB-231 cells [3]): 22.4 ± 1.9 µM; GI50 (A549 cells [4]): 16.7 ± 1.2 µM; anti-migratory effect (A549 cells [5]): demonstrated an anti-migratory effect; GI50 (SK-MEL-28 cells [6]): 16.6 ± 1.2 µM; degradation of Akt (Akt): did not induce the degradation of Akt; effect on migration (SK-MEL-28 cells [7]): demonstrated a susceptibility to Grp94 inhibition; GI50 (PC3-MM2 cells [8]): 18.3 ± 2.3 µM
COC1=C2C[C@@H](C)C[C@H](OC)[C@H](O)[C@@H](C)/C=C(\C)[C@H](OC(N)=O)[C@@H](OC)/C=C\C=C(/C)C(=O)NC(=CC1=O)C2=O [geldanamycin, reference compound]	–	induction of Hsp70 (Hsp70): increased the levels of Hsp70; degradation of Akt (Akt): induced the degradation of Akt

Second part, led by results:

Kd (Hsp90α)	Compound	also measured
20.7 ± 0.5 µM	COC(=O)c1c(O)cc(O)c(Cl)c1CCc1ccccc1Cc1ccccc1 [Compound 6, methyl 2-(2-benzylphenethyl)-3-chloro-4,6-dihydroxybenzoate]	–
2.2 ± 0.2 µM	COC(=O)c1c(O)cc(O)c(Cl)c1CCc1cc(OC)ccc1Cc1ccccc1 [Compound 16, methyl 2-(2-benzyl-5-methoxyphenethyl)-3-chloro-4,6-dihydroxybenzoate]	–
13.7 ± 1.4 µM	COC(=O)c1c(O)cc(O)c(Cl)c1CCc1cccc(OC)c1Cc1ccccc1 [Compound 18, methyl 2-(2-benzyl-3-methoxyphenethyl)-3-chloro-4,6-dihydroxybenzoate]	–
1 ± 0.1 µM	COC(=O)c1c(O)cc(O)c(Cl)c1CCc1cc(N)ccc1Cc1ccccc1 [Compound 19, methyl 2-(5-amino-2-benzylphenethyl)-3-chloro-4,6-dihydroxybenzoate]	–
0.34 ± 0.07 µM	COC(=O)c1c(O)cc(O)c(Cl)c1CCc1ccc(N)cc1Cc1ccccc1 [Compound 20, methyl 2-(4-amino-2-benzylphenethyl)-3-chloro-4,6-dihydroxybenzoate]	–
2.1 ± 0.1 µM	COC(=O)c1c(O)cc(O)c(Cl)c1CCc1cc(O)ccc1Cc1ccccc1 [Compound 22, methyl 2-(2-benzyl-5-hydroxyphenethyl)-3-chloro-4,6-dihydroxybenzoate]	–
2 ± 0.2 µM	COC(=O)c1c(O)cc(O)c(Cl)c1CCc1cccc(O)c1Cc1ccccc1 [Compound 24, methyl 2-(2-benzyl-3-hydroxyphenethyl)-3-chloro-4,6-dihydroxybenzoate]	–
> 100 µM	CCOc1ccccc1Cc1ccccc1CCc1c(Cl)c(O)cc(O)c1C(=O)OC [Compound 25, methyl 3-chloro-2-(2-(2-ethoxybenzyl)phenethyl)-4,6-dihydroxybenzoate]	–
> 100 µM	COC(=O)c1c(O)cc(O)c(Cl)c1CCc1ccccc1Cc1ccccc1OC [Compound 26, methyl 3-chloro-4,6-dihydroxy-2-(2-(2-methoxybenzyl)phenethyl)benzoate]	–
> 100 µM	COC(=O)c1c(O)cc(O)c(Cl)c1CCc1ccccc1Cc1ccccc1Cl [Compound 27, methyl 3-chloro-2-(2-(2-chlorobenzyl)phenethyl)-4,6-dihydroxybenzoate]	–
